According to patent publication US11697650B2, “Compounds having tetrahydroindolizine-1-carboxamide as BCL-2 inhibitors” (Eil Therapeutics, Inc., priority 2021, dated 2023):

Assays:
MOLT-4 cells = assay: Cell viability assay (CellTiter-Glo), MOLT-4; assay type: cell-based; settings: Homo sapiens, 72 h, 3 days, read-out: MOLT-4 (CC50 code)
Experimental: (§1) Culture medium for HEK293—DMEM (PanEco, Cat #C420) was used. RPMI-1640 (PanEco, Cat #C363) was used for the rest of the cell lines.
(§2) Compounds were prepared as 200× stocks with serial dilution in 100% DMSO with a final concentration of 1×.
(§3) […] were dispersed in 40 μL aliquots in 384-well plates at a concentration of 2000 cells per well for HEK293 and at a concentration of 4000 cells per well for the rest of the cell lines using a robotic station Biomek (Beckman). Before adding compounds, the cells were incubated at 37° C. (HEK293 were incubated for a day before adding compounds).
(§4) A dilution plate was prepared by pouring 78 μL of the appropriate culture medium using a robotic station Biomek (Beckman). Sequentially, using a robotic station, 2 μL of substances were taken and added to 78 μL of culture medium (dilution of compounds 40×). 10 μL aliquots were taken and added to the plates of the cells (dilution of compounds 5×). The plates were incubated for 3 days at a temperature 37° C. After 3 days, 10 μL of CellTiter-Glo (Promega) was added to the cells and the luminescence was measured.

[1] = test system: caspase-3 and -7 activities in RS4-11 cells; assay: Caspase-3/7 activation (Caspase-Glo 3/7) in RS4-11 cells; assay type: cell-based; settings: Homo sapiens, 3.5 h incubation, read-out: Cas-3/7 (EC50 code)
Experimental: The Caspase-Glo 3/7 Assay is homogeneous, luminescent assay that measures caspase-3 and -7 activities. The assay provides a luminogenic caspase-3/7 substrate, which contains the tetrapeptide sequence DEVD, in a reagent optimized for caspase activity.
Incubate RS4-11 cells with varying concentrations of test compounds for 3.5 h in a humidified incubator at 37° C. and 5% CO2 and 30 min at r.t. Add 15 μl Caspase-Glo reagent to each well and incubate the plate for 30 min at r.t. Read on ClarioStar Plus instrument.
Promega Caspase-Glo (Promega, #8212); Frozen RS4-11 cells; 384-well white plate (Corning, #3570).
ClarioStar Plus; Biomek FX for liquid handling (Beckman Coulter).

BCL-XL = BCL-XL (Homo sapiens (Human), UniProt Q07817); assay: BCL-XL TR-FRET Assay (primary PPI inhibition); assay type: binding; settings: 60 min incubation; read-out: BCLxL (IC50 code, BCL-XL TR-FRET)
BCL-XL, sequence (Q07817 whole entry): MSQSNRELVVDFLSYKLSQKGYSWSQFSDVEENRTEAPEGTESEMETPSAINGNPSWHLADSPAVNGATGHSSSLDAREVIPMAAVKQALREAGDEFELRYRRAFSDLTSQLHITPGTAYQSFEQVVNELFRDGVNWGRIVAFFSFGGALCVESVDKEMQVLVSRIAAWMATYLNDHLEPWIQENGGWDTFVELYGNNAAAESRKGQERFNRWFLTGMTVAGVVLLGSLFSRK
Experimental: BCL-XL TR-FRET Assay (BPS Bioscience, #50223)
(§5) The following assay concentrations and times were used: 10.5 ng BCL-XL, 5 μl of 1:100 anti-His Tb-labeled donor, 5 μl of 1:100 Dye-labeled acceptor, 5 μl of 1:80 BCL-XL Peptide Ligand, and 2 μl of test compound, with 60 min incubation time. The results of the assay were read using a Clariostar (BMG Labtech) plate reader with the following parameters: TR FRET, 340ex/620 and 665em; 60 μsec Delay; and 500 μsec integration.

[2] = Cell viability assay (CellTiter-Glo), HEK293; assay type: cell-based; settings: human, HEK293 cells, read-out: HEK293 (CC50 code)
Experimental: as §1, §2, §3, §4

BCL-2 = BCL-2 (Homo sapiens (Human), UniProt P10415); assay: BCL-2 TR-FRET Assay (primary PPI inhibition); assay type: binding; settings: 60 min incubation; read-out: BCL2 (IC50 code, BCL-2 TR-FRET)
BCL-2, sequence (P10415 whole entry): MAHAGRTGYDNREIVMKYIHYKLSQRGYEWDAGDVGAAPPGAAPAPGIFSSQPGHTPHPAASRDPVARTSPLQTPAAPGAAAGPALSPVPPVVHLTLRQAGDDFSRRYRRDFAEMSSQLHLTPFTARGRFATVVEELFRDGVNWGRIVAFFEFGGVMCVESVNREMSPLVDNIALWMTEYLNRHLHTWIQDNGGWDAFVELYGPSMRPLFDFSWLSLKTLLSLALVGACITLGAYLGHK
Experimental: BCL-2 TR-FRET Assay (BPS Bioscience, #50222)
as §5, with “used: 3” for “used: 10.5”, “ng BCL-2,” for “ng BCL-XL,”, “of 1:40 BCL-2” for “of 1:80 BCL-XL”, “2 ul” for “2 μl”

RS4-11 cells = assay: Cell viability assay (CellTiter-Glo), RS4-11; assay type: cell-based; settings: Homo sapiens, 72 h, 3 days, read-out: RS4-11 (CC50 code)
Experimental: as §1, §2, §3, §4

With `COc1cccc(CN(C(=O)c2cc(-c3cc4c(cc3C(=O)N3Cc5ccccc5C[C@H]3CN3CCOCC3)OCO4)n3c2CCCC3)c2ccc(O)cc2)c1C` [Compound 3, N-(4-hydroxyphenyl)-N-(3-methoxy-2-methylbenzyl)-3-(6-{[(3S)-3-(morpholin-4-ylmethyl)-3,4-dihydroisoquinolin-2(1H)-yl]carbonyl}-1,3-benzodioxol-5-yl)-5,6,7,8-tetrahydroindolizine-1-carboxamide] the CC50 (MOLT-4 cells) was at most 2 µM, the EC50 [1] was at most 0.1 µM and the IC50 (BCL-XL) was at most 2 µM. For the same compound, the CC50 at 3 days [2] was over 25 µM, the IC50 (BCL-2) was at most 0.005 µM and the CC50 (RS4-11 cells) was at most 0.1 µM.
For `Cc1ccccc1CN(C(=O)c1cc(-c2cc3c(cc2C(=O)N2Cc4ccccc4C[C@H]2CN2CCOCC2)OCO3)n2c1CCCC2)c1ccc(O)cc1` [Compound 4, N-(4-hydroxyphenyl)-N-(2-methylbenzyl)-3-(6-{[(3S)-3-(morpholin-4-ylmethyl)-3,4-dihydroisoquinolin-2(1H)-yl]carbonyl}-1,3-benzodioxol-5-yl)-5,6,7,8-tetrahydroindolizine-1-carboxamide], the CC50 (MOLT-4 cells) was over 10 µM, the EC50 [1] was at most 0.1 µM and the IC50 (BCL-XL) was at most 2 µM. The CC50 at 3 days [2] was over 25 µM, the IC50 (BCL-2) was at most 0.005 µM and the CC50 (RS4-11 cells) was at most 0.1 µM.
With `O=C(c1cc(-c2cc3c(cc2C(=O)N2Cc4ccccc4C[C@H]2CN2CCOCC2)OCO3)n2c1CCCC2)N(Cc1ccccc1C(F)(F)F)c1ccc(O)cc1` [Compound 5, N-(4-hydroxyphenyl)-3-(6-{[(3S)-3-(morpholin-4-ylmethyl)-3,4-dihydroisoquinolin-2(1H)-yl]carbonyl}-1,3-benzodioxol-5-yl)-N-[2-(trifluoromethyl)benzyl]-5,6,7,8-tetrahydroindolizine-1-carboxamide] the CC50 (MOLT-4 cells) was 2 to 10 µM, the EC50 [1] was at most 0.1 µM and the IC50 (BCL-XL) was at most 2 µM. The CC50 at 3 days [2] was over 25 µM, the IC50 (BCL-2) was at most 0.005 µM and the CC50 (RS4-11 cells) was at most 0.1 µM.
`O=C(c1cc(-c2cc3c(cc2C(=O)N2Cc4ccccc4C[C@H]2CN2CCOCC2)OCO3)n2c1CCCC2)N(Cc1ccncc1)c1ccc(O)cc1` [Compound 9, N-(4-hydroxyphenyl)-3-(6-{[(3S)-3-(morpholin-4-ylmethyl)-3,4-dihydroisoquinolin-2(1H)-yl]carbonyl}-1,3-benzodioxol-5-yl)-N-(pyridin-4-ylmethyl)-5,6,7,8-tetrahydroindolizine-1-carboxamide] showed a CC50 (MOLT-4 cells) of 2 to 10 µM, an EC50 [1] of 0.1 to 0.25 µM and an IC50 (BCL-XL) of 2 to 4 µM. For the same compound, the CC50 at 3 days [2] was 10 to 25 µM, the IC50 (BCL-2) was at most 0.005 µM and the CC50 (RS4-11 cells) was 0.1 to 0.2 µM.
`Cc1cccc(CN(C(=O)c2cc(-c3cc4c(cc3C(=O)N3Cc5ccccc5C[C@H]3CN3CCOCC3)OCO4)n3c2CCCC3)c2ccc(O)cc2)c1` [Compound 14, N-(4-hydroxyphenyl)-N-(3-methylbenzyl)-3-(6-{[(3S)-3-(morpholin-4-ylmethyl)-3,4-dihydroisoquinolin-2(1H)-yl]carbonyl}-1,3-benzodioxol-5-yl)-5,6,7,8-tetrahydroindolizine-1-carboxamide] gave a CC50 (MOLT-4 cells) of 2 to 10 µM, an EC50 [1] of over 0.25 µM and an IC50 (BCL-XL) of 2 to 4 µM. The CC50 at 3 days [2] was over 25 µM, the IC50 (BCL-2) was 0.005 to 0.01 µM and the CC50 (RS4-11 cells) was at most 0.1 µM.
In the case of `O=C(c1cc(-c2cc3c(cc2C(=O)N2Cc4ccccc4C[C@H]2CN2CCOCC2)OCO3)n2c1CCCC2)N(Cc1ccccc1)c1ccc(O)cc1` [Compound 15, N-benzyl-N-(4-hydroxyphenyl)-3-(6-{[(3S)-3-(morpholin-4-ylmethyl)-3,4-dihydroisoquinolin-2(1H)-yl]carbonyl}-1,3-benzodioxol-5-yl)-5,6,7,8-tetrahydroindolizine-1-carboxamide], the CC50 (MOLT-4 cells) is reported as at most 2 µM, the EC50 [1] is reported as 0.1 to 0.25 µM and the IC50 (BCL-XL) is reported as at most 2 µM. The CC50 at 3 days [2] was over 25 µM, the IC50 (BCL-2) was 0.005 to 0.01 µM and the CC50 (RS4-11 cells) was 0.1 to 0.2 µM.
`O=C(c1cc(-c2cc3c(cc2C(=O)N2Cc4ccccc4C[C@H]2CN2CCOCC2)OCO3)n2c1CCCC2)N(Cc1cccc(C(F)(F)F)c1)c1ccc(O)cc1` [Compound 16, N-(4-hydroxyphenyl)-3-(6-{[(3S)-3-(morpholin-4-ylmethyl)-3,4-dihydroisoquinolin-2(1H)-yl]carbonyl}-1,3-benzodioxol-5-yl)-N-[3-(trifluoromethyl)benzyl]-5,6,7,8-tetrahydroindolizine-1-carboxamide] gave a CC50 (MOLT-4 cells) of over 10 µM, an EC50 [1] of 0.1 to 0.25 µM and an IC50 (BCL-XL) of over 4 µM. It also gave a CC50 at 3 days [2] of over 25 µM, an IC50 (BCL-2) of 0.01 to 0.05 µM and a CC50 (RS4-11 cells) of 0.1 to 0.2 µM.
`O=C(c1cc(-c2cc3c(cc2C(=O)N2Cc4ccccc4C[C@H]2CN2CCOCC2)OCO3)n2c1CCCC2)N(Cc1ccccc1-c1ccccc1)c1ccc(O)cc1` [Compound 18, N-(biphenyl-2-ylmethyl)-N-(4-hydroxyphenyl)-3-(6-{[(3S)-3-(morpholin-4-ylmethyl)-3,4-dihydroisoquinolin-2(1H)-yl]carbonyl}-1,3-benzodioxol-5-yl)-5,6,7,8-tetrahydroindolizine-1-carboxamide] gave a CC50 (MOLT-4 cells) of 2 to 10 µM, an EC50 [1] of over 0.25 µM and an IC50 (BCL-XL) of at most 2 µM. It also gave a CC50 at 3 days [2] of over 25 µM, an IC50 (BCL-2) of 0.01 to 0.05 µM and a CC50 (RS4-11 cells) of over 0.2 µM.
Work on `O=C(c1cc(-c2cc3c(cc2C(=O)N2Cc4ccccc4C[C@H]2CN2CCOCC2)OCO3)n2c1CCCC2)N(Cc1c(F)cccc1F)c1ccc(O)cc1` [Compound 19, N-(2,6-difluorobenzyl)-N-(4-hydroxyphenyl)-3-(6-{[(3S)-3-(morpholin-4-ylmethyl)-3,4-dihydroisoquinolin-2(1H)-yl]carbonyl}-1,3-benzodioxol-5-yl)-5,6,7,8-tetrahydroindolizine-1-carboxamide] yielded a CC50 (MOLT-4 cells) of 2 to 10 µM, an EC50 [1] of over 0.25 µM and an IC50 (BCL-XL) of over 4 µM. For the same compound, the CC50 at 3 days [2] was over 25 µM, the IC50 (BCL-2) was 0.005 to 0.01 µM and the CC50 (RS4-11 cells) was over 0.2 µM.
In the case of `Cc1ccc(CN(C(=O)c2cc(-c3cc4c(cc3C(=O)N3Cc5ccccc5C[C@H]3CN3CCOCC3)OCO4)n3c2CCCC3)c2ccc(O)cc2)cc1` [Compound 20, N-(4-hydroxyphenyl)-N-(4-methylbenzyl)-3-(6-{[(3S)-3-(morpholin-4-ylmethyl)-3,4-dihydroisoquinolin-2(1H)-yl]carbonyl}-1,3-benzodioxol-5-yl)-5,6,7,8-tetrahydroindolizine-1-carboxamide], the CC50 (MOLT-4 cells) is reported as 2 to 10 µM, the EC50 [1] is reported as over 0.25 µM and the IC50 (BCL-XL) is reported as 2 to 4 µM. For the same compound, the CC50 at 3 days [2] was at most 10 µM, the IC50 (BCL-2) was 0.005 to 0.01 µM and the CC50 (RS4-11 cells) was 0.1 to 0.2 µM.
Work on `O=C(c1cc(-c2cc3c(cc2C(=O)N2Cc4ccccc4C[C@H]2CN2CCOCC2)OCO3)n2c1CCCC2)N(Cc1cccc(F)c1)c1ccc(O)cc1` [Compound 21, N-(3-fluorobenzyl)-N-(4-hydroxyphenyl)-3-(6-{[(3S)-3-(morpholin-4-ylmethyl)-3,4-dihydroisoquinolin-2(1H)-yl]carbonyl}-1,3-benzodioxol-5-yl)-5,6,7,8-tetrahydroindolizine-1-carboxamide] yielded a CC50 (MOLT-4 cells) of over 10 µM, an EC50 [1] of over 0.25 µM and an IC50 (BCL-XL) of 2 to 4 µM. For the same compound, the CC50 at 3 days [2] was over 25 µM, the IC50 (BCL-2) was 0.01 to 0.05 µM and the CC50 (RS4-11 cells) was 0.1 to 0.2 µM.
`Cc1cc(C(F)(F)F)ccc1CN(C(=O)c1cc(-c2cc3c(cc2C(=O)N2Cc4ccccc4C[C@H]2CN2CCOCC2)OCO3)n2c1CCCC2)c1ccc(O)cc1` [Compound 37, N-(4-hydroxyphenyl)-N-[2-methyl-4-(trifluoromethyl)benzyl]-3-(6-{[(3S)-3-(morpholin-4-ylmethyl)-3,4-dihydroisoquinolin-2(1H)-yl]carbonyl}-1,3-benzodioxol-5-yl)-5,6,7,8-tetrahydroindolizine-1-carboxamide] showed a CC50 (MOLT-4 cells) of 2 to 10 µM, an EC50 [1] of 0.1 to 0.25 µM and a CC50 at 3 days [2] of over 25 µM. It also gave an IC50 (BCL-2) of 0.005 to 0.01 µM and a CC50 (RS4-11 cells) of at most 0.1 µM.
